# Results: patent publication US11534434B2 (Karuna Therapeutics, Inc., priority 2019, dated 2022)
# What was measured:
# [1] = Human liver microsome stability; assay type: in vitro ADME; settings: human liver microsomes
# Method: Human Liver Microsome Stability
# Test compounds were dissolved in DMSO to prepare 10 mM stock solutions, diluted to a final test concentration of 100 nM, and incubated at 37° C. with human liver microsomes. Metabolic stability, expressed as a percent of the parent compound remaining, was assessed at 0, 15, 30, 45, and 60 minutes and calculated by comparing the compound's peak area at the time point relative to that at time-0. The half-life (T1/2) was estimated from the slope of the initial linear range of the logarithmic curve of compound remaining (%) vs. time, assuming first-order kinetics. The apparent intrinsic clearance (CLint, in μL/min/pmol, μL/min/mg or μL/min/Mcell) was calculated according to the following formula: CLint=0.693 T1/2*(mg protein/μL or million cells/μL or pmol CYP isoyme/μL).
# human M1 mAChR = target: T1, human M1 mAChR (Homo sapiens, UniProt P11229); assay: Whole-cell functional agonist activity, FLIPR Ca2+ release, U2OS-based human M1 mAChR stable cell line
# T1 construct: expressed in transfected cells
# T1 sequence (P11229 1-460): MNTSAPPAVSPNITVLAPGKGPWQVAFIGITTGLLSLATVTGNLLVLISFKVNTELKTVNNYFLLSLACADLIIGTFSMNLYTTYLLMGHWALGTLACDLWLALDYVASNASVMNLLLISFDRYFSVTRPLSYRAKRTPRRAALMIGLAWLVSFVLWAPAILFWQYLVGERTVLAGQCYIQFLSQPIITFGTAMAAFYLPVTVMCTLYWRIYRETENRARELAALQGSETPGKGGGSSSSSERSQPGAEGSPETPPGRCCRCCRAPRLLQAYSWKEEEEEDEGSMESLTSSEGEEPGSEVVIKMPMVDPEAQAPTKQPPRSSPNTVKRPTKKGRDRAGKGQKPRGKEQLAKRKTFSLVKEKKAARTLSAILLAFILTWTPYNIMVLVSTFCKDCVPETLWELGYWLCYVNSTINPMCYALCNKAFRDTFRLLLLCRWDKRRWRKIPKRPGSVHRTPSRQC
# Excerpt: (§1) Whole-cell functional agonist activity in cells expressing recombinant human muscarinic receptor subtypes.
# (§2) ThermoFisher's FLIPR™ (Fluorescence Imaging Plate Reader) was used to quantify Ca^2+ release, a functional effect associated with Gaq-coupled M1 and M5 mAChRs. CisBio's phospho-ERK (pERK) Thr202/Tyr204 was used to evaluate Gai/o-coupled M2 and M4 mAChRs responses.
# (§3) One day before the assay, M1, M3, and M5 cells were thawed out and plated at 10,000 cells/well into black-walled, clear-bottom, Poly-D-lysine coated 384-well microplates and incubated at 37° C. and 5% CO2 in MEME+10% FBS+1× penicillin/streptomycin/glutamine, for the M1 and M3 cell lines and F-12+10% FBS+1× penicillin/streptomycin/glutamine for the M5 cell line. […] The M1 and M5 responses were analyzed using the CBIS data analysis suite (ChemInnovation, CA).
# (§4) Percentage activity was calculated using the following formula: % Activity=100%×(mean RFU of test sample mean RFU of vehicle control)/(mean MAX RFU control ligand mean RFU of vehicle control) where RFU is relative fluorescence unit. The M2 and the M4 cells were thawed out one day before the assay and plated at 2,000 and 1,000 cells per well, respectively, in […] of DMEM/F12+10% FBS in ProxiPlate 384-well white-walled, white-bottom tissue culture-treated plates and incubated at 37° C. and 5% CO2 overnight. Before the assay, cells were serum-starved at 37° C. in 5% CO2 for 4 hours by replacing culture media with […] of F12 media with 8 mM HEPES. The pERK assay was run according to assay kit instructions with minor volume modifications outlined below.
# human M3 mAChR = target: T2, human M3 mAChR (Homo sapiens, UniProt P20309); assay: Whole-cell functional agonist activity, FLIPR Ca2+ release, U2OS-based human M3 mAChR stable cell line; settings: for EC50: agonist, FLIPR Ca2+ release, U2OS human M3 cells; for Emax: top of curve, % activity vs MAX control ligand, FLIPR Ca2+
# T2 construct: expressed in transfected cells
# T2 sequence (P20309 whole entry): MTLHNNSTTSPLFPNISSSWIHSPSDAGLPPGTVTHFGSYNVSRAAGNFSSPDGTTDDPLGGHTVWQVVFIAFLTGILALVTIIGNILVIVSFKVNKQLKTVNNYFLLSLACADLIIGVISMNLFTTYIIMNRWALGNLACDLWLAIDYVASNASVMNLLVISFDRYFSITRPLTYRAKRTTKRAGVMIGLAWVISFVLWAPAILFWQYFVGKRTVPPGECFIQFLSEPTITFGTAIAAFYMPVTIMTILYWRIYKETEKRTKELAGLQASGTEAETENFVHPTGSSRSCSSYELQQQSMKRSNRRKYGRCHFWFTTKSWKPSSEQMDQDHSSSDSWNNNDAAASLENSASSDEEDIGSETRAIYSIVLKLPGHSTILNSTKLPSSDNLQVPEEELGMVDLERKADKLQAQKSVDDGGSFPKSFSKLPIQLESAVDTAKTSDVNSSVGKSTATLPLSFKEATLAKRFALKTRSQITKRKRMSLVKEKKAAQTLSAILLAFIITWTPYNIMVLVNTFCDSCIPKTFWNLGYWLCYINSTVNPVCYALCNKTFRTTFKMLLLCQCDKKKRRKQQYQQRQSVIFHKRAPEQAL
# Excerpt: as §1, §2
# One day before the assay, M1, M3, and M5 cells were thawed out and plated at 10,000 cells/well into black-walled, clear-bottom, Poly-D-lysine coated 384-well microplates and incubated at 37° C. and 5% CO2 in MEME+10% FBS+1× penicillin/streptomycin/glutamine, for the M1 and M3 cell lines and F-12+10% FBS+1× penicillin/streptomycin/glutamine for the M5 cell line. On the day of the test, the media was aspirated and replaced with […] fluo-4 dye loading buffer (1× dye, 1× additive A and 2.5 mM fresh probenecid in HBSS and 20 mM HEPES) and incubated at 37° C. and 5% CO2 for 45 minutes. After the incubation, cells were removed from the incubator, […] of HBSS and 20 mM HEPES was added for a total volume of […], and the cells were allowed to equilibrate at room temperature for 15 minutes in the dark before compounds were applied, by adding 4× compound solution in […] of HBSS, 0.4% DMSO and 20 mM HEPES buffer (made from a 10 mM compound stock solution in 100% DMSO), and responses were recorded for 2 minutes in FLIPR Tetra after compound administration. The M1 and M5 responses were analyzed using the CBIS data analysis suite (ChemInnovation, CA).
# as §4
# human M5 mAChR = target: T3, human M5 mAChR (Homo sapiens, UniProt P08912); assay: Whole-cell functional agonist activity, FLIPR Ca2+ release, CHOK1-based human M5 mAChR stable cell line; settings: for Emax: top of curve, % activity vs MAX control ligand, FLIPR Ca2+
# T3 construct: expressed in transfected cells
# T3 sequence (P08912 1-532): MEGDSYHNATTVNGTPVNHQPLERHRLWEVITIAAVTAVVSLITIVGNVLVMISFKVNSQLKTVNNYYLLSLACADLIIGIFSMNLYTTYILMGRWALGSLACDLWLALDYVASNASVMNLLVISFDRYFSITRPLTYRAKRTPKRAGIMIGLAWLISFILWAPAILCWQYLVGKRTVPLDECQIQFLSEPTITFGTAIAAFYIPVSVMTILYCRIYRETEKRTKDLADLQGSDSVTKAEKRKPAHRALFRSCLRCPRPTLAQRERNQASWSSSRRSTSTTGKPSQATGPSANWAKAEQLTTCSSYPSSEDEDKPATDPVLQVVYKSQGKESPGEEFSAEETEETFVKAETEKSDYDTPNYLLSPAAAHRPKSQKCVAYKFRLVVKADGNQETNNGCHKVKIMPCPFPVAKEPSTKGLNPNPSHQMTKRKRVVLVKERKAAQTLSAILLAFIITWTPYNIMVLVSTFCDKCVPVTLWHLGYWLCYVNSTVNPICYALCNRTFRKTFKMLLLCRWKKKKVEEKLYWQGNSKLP
# Excerpt: as §1, §2, §3, §4
# [2] = Storage stability of the tartrate salt (reanalysis by LC-MS, 1H NMR, 19F NMR); assay type: physicochemical; settings: after 2 days
# Method: The tartrate salt of the title compound was unstable at test storage conditions. Although the initial NMR spectra were clean, the LCMS purity was about 75%. After storage at 0° C. for six months, the sample was reanalyzed by ^1H-NMR, ^19F-NMR, and LC-MS.
# human M2 mAChR = target: T4, human M2 mAChR (Homo sapiens, UniProt P08172); assay: Whole-cell functional agonist activity, phospho-ERK (pERK), CHOK1-based human M2 mAChR stable cell line; settings: top of curve, % of min (DMSO) and max (10 mM Acetylcholine) responses
# T4 construct: expressed in transfected cells
# T4 sequence (P08172 1-466): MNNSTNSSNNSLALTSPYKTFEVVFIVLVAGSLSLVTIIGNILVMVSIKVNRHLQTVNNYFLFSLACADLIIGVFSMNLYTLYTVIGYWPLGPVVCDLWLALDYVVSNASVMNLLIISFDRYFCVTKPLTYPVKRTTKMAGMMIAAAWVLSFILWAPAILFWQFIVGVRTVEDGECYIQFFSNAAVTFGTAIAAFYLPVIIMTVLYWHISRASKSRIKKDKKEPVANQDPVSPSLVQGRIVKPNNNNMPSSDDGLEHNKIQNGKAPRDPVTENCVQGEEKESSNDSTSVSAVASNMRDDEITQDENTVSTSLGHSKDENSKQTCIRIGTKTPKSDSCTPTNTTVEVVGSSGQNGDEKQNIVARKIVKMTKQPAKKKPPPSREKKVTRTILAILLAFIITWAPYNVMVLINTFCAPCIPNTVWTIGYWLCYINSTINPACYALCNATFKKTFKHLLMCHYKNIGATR
# Method: as §1, §2, §4
# (§5) Compound addition was carried out by adding 3× compound solution in […] of media with 0.3% DMSO (made from a 10 mM compound stock solution in 100% DMSO) for 5 minutes before the reaction was terminated by adding […] lysis and blocking solution. Cells were left in the lysis solution for 30 minutes before […] of antibody (Eu and d2) solution was added for an additional 2-hour incubation while protected from light. The plates were then read on laser Pherastar using the TR-FRET protocol.
# human M4 mAChR = target: T5, human M4 mAChR (Homo sapiens, UniProt P08173); assay: Whole-cell functional agonist activity, phospho-ERK (pERK), CHOK1-based human M4 mAChR stable cell line; settings: top of curve, % of min (DMSO) and max (10 mM Acetylcholine) responses
# T5 construct: expressed in transfected cells
# T5 sequence (P08173 1-479): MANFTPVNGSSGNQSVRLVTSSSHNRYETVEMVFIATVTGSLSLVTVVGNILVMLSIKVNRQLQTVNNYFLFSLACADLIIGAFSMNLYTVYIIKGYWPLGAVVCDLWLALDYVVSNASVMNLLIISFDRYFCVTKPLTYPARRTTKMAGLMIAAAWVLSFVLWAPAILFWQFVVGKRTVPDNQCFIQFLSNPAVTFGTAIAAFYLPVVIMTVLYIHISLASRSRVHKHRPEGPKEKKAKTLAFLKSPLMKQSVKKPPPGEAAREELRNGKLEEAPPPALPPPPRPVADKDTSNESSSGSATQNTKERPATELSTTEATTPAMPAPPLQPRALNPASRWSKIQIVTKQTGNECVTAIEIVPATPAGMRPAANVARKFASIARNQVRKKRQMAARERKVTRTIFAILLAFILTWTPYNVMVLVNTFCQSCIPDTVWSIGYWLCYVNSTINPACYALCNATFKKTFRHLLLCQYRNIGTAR
# Method: as §1, §2, §4, §5
# [3] = Pharmacokinetics following single oral dose administration in male Sprague-Dawley rats; assay type: in vivo; settings: rat, oral administration of tartrate salts 25 mg/kg
# Method: In-Vivo Assessment of Pharmacokinetics Following Oral Dose Administration in Male Sprague-Dawley Rats
# Blood samples were collected from all animals in Groups 1-3 at 0.25, 0.5, 1, 2, 4, 6, 8, 12, and 24 hours post-dose, with each animal, bled at all time points. […] The slopes of the elimination phase of the concentrations vs. time curve used to calculate the T1/2 were determined by log-linear regression.
# PK analyses were performed and validated using Phoenix® WinNonlin® version 8.0.
"microsomal CLint at 100 nM ([1]; apparent intrinsic clearance, no unit in table (μL/min/pmol, μL/min/mg or μL/min/Mcell)) [µL/min/mg]","Parent at 60 min (%) ([1]; 100 nM, 37° C., tartrate salt)","half-life at 100 nM ([1]; 100 nM, 37° C., tartrate salt) [min]","EC50 (human M1 mAChR; agonist, FLIPR Ca2+ release, U2OS human M1 cells) [nM]","Emax (human M1 mAChR; top of curve, % activity vs MAX control ligand, FLIPR Ca2+) [%]",EC50 (human M3 mAChR) [nM],Emax (human M3 mAChR) [%],"EC50 (human M5 mAChR; agonist, FLIPR Ca2+ release, CHOK1 human M5 cells) [nM]",Emax (human M5 mAChR) [%],stability of tartrate salt preparation by LCMS [2],M2 Top (%) (human M2 mAChR),M4 Top (%) (human M4 mAChR),SMILES,plasma levels compared between treatments [3]
701,1,10,4.2,90,> 10000,9,26.5,87,–,–,–,"CCCC(F)(F)CCOc1nsnc1C1=CCCN(C)C1 [Example 10, 3-((3,3-Difluorohexyl)oxy)-4-(1-methyl-1,2,5,6-tetrahydropyridin-3-yl)-1,2,5-thiadiazole]",–
–,–,–,–,–,–,–,–,–,turned messy,–,–,"CCCCCCOc1nsnc1C1=CCCN(C(F)(F)F)C1 [Example 3, 3-(Hexyloxy)-4-(1-(trifluoromethyl)-1,2,5,6-tetrahydropyridin-3-yl)-1,2,5-thiadiazole]",–
–,–,–,–,–,> 10000,17,–,92,–,1,100,"CCCCCCOc1nsnc1C1=CCCN(C)C1 [Xanomeline, 3-(hexyloxy)-4-(1-methyl-1,2,5,6-tetrahydropyridin-3-yl)-1,2,5-thiadiazole, reference compound]",about mid-way between the levels of xanomeline-d16 and xanomeline-d13
